In ChEMBL document CHEMBL3588795, “GPCR crystal structures: Medicinal chemistry in the pocket” (Bioorg Med Chem, 2015):
pIC50: −log10 of the molar value.

Target: Metabotropic glutamate receptor 1 (Homo sapiens, UniProt Q13255)
Assay: Negative allosteric modulation of human mGluR1alpha expressed in syrian hamster AV-12 cells assessed as inhibition of quisqualate-induced phosphoinositide hydrolysis
Format: cell-based, AV12

Sequence of Metabotropic glutamate receptor 1 (Q13255 whole entry): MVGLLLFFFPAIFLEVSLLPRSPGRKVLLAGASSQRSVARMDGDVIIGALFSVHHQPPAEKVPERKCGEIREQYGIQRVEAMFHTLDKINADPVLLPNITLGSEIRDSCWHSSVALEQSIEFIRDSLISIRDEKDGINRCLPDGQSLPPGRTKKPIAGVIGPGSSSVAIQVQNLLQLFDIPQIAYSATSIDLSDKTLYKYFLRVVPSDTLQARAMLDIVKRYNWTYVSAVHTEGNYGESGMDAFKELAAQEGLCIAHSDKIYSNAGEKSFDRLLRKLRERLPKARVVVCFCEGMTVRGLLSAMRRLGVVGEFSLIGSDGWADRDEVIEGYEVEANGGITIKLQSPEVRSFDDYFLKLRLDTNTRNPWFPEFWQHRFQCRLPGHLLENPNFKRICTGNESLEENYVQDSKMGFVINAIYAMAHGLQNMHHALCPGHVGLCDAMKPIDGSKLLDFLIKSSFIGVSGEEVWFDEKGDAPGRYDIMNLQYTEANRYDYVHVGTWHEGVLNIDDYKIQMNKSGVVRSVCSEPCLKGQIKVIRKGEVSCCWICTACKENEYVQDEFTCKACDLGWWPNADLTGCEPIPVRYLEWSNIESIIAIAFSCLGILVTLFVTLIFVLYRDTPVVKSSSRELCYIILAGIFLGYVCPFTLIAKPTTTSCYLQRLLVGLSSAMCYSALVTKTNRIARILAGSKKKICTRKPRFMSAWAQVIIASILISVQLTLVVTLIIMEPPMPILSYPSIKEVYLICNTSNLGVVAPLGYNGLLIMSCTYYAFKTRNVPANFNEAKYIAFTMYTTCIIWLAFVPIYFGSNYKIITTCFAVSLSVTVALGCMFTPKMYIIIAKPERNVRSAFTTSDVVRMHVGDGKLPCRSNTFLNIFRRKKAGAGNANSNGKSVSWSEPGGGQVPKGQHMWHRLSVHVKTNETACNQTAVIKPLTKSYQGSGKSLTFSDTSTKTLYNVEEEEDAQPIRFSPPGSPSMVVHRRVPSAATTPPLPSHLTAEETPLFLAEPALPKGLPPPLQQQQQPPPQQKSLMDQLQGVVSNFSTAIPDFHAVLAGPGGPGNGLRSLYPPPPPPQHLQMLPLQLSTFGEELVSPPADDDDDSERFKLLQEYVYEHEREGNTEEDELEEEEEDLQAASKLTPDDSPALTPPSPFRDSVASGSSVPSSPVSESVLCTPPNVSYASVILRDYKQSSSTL

## Cc1cc(C(=O)O)ccc1[C@H](N)C(=O)O
  pIC50: 5.10
